In patent US8524902B2, “[1,2,4]triazolo[4,3-f]pteridines useful as inhibitors of protein kinases” (Vertex Pharmaceuticals Incorporated, priority 2006, dated 2013):
pKi: −log10 of the molar value.

biological target: T1, Plk1 (Homo sapiens, UniProt P53350); assay: Plk1 inhibition assay (radioactive-phosphate incorporation); format: biochemical; conditions: Ki(app) from [γ-33P]ATP incorporation, 25° C.
T1 construct: in the presence of 15 nM Plk1 (A20-K338)
Procedure: Compounds of the present invention may be evaluated as inhibitors of human PLK kinase using the following assays.
Compounds were screened for their ability to inhibit Plk1 using a radioactive-phosphate incorporation assay. Assays were carried out in a mixture of 25 mM HEPES (pH 7.5), 10 mM MgCl2, and 1 mM DTT. Final substrate concentrations were 50 μM [γ-33P]ATP (136 mCi 33P ATP/mmol ATP, Amersham Pharmacia Biotech/Sigma Chemicals) and 10 μM peptide (SAM68 protein Δ332-443). Assays were carried out at 25° C. in the presence of 15 nM Plk1 (A20-K338). An assay stock buffer solution was prepared containing all of the reagents listed above, with the exception of ATP and the test compound of interest. 30 μL of the stock solution was placed in a 96 well plate followed by addition of 2 μL of DMSO stock containing serial dilutions of the test compound (typically starting from a final concentration of 10 μM with 2-fold serial dilutions) in duplicate (final DMSO concentration 5%). The plate was pre-incubated for 10 minutes at 25° C. and the reaction initiated by addition of 8 μL [γ33P]ATP (final concentration 50 μM).
(§1) The reaction was stopped after 60 minutes by the addition of 100 μL 0.14M phosphoric acid. A multiscreen phosphocellulose filter 96-well plate (Millipore, Cat no. MAPHN0B50) was pretreated with 100 μL 0.2M phosphoric acid prior to the addition of 125 μL of the stopped assay mixture. The plate was washed with 4×200 μL 0.2M phosphoric acid. After drying, 100 μL Optiphase ‘SuperMix’ liquid scintillation cocktail (Perkin Elmer) was added to the well prior to scintillation counting (1450 Microbeta Liquid Scintillation Counter, Wallac).
After removing mean background values for all of the data points, Ki(app) data were calculated from non-linear regression analysis of the initial rate data using the Prism software package (GraphPad Prism version 3.0cx for Macintosh, GraphPad Software, San Diego Calif., USA).
Compounds were screened for their ability to inhibit Plk1 using a radioactive-phosphate incorporation assay. Assays were carried out in a mixture of 25 mM HEPES (pH 7.5), 10 mM MgCl2, 0.1% BSA, and 2 mM DTT. Final substrate concentrations were 150 μM (350 μM for determining values of <1 nM) [γ-33P]ATP (115 mCi 33P ATP/mmol ATP, Amersham Pharmacia Biotech/Sigma Chemicals) and 300 μM (450 μM for determining values of <1 nM) peptide (KKKISDELMDATFADQEAK) SEQ. ID NO. 1. Assays were carried out at 25° C. in the presence of 4 nM (1 nM for determining values of <1 nM) Plk1. An assay stock buffer solution was prepared containing all of the reagents listed above, with the exception of ATP and the test compound of interest. 30 μL of the stock solution was placed in a 96 well plate followed by addition of 2 μL of DMSO stock containing serial dilutions of the test compound (typically starting from a final concentration of 10 μM with 2-fold serial dilutions) in duplicate (final DMSO concentration 5%). The plate was pre-incubated for 10 minutes at 25° C. and the reaction initiated by addition of 8 μl [γ-33P]ATP (final concentration 150 μM (350 μM for determining values of <1 nM))).
as §1, with “90” for “60”, “minutes (240 minutes for determining values of <1 nM)” for “minutes”

T1 sequence (P53350 20-338): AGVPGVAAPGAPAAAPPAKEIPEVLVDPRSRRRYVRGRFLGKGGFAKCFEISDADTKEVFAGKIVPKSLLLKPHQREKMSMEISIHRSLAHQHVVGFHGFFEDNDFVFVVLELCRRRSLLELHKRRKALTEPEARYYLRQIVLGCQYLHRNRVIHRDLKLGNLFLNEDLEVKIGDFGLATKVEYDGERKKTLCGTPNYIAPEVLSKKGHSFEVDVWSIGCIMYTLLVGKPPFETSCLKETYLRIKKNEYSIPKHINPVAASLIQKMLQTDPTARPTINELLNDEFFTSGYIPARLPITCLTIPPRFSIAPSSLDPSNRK

Structure (SMILES)	pKi
CC[C@@H]1c2nncn2-c2cnc(Nc3ccc(C(=O)NC)cc3OC)nc2N1C1CCCC1 [Compound I-1, 4-((R)-5-cyclopentyl-4-ethyl-4,5-dihydro-[1,2,4]triazolo[4,3-f]pteridin-7-ylamino)-3-methoxy-N-methylbenzamide]	> 8.00
CC[C@@H]1c2nncn2-c2cnc(Nc3ccc(C(=O)NC4CC4)cc3)nc2N1C1CCCC1 [Compound I-11, (R)-4-(5-cyclopentyl-4-ethyl-4,5-dihydro-[1,2,4]triazolo[4,3-f]pteridin-7-ylamino)-N-cyclopropylbenzamide]	> 8.00
CC[C@@H]1c2nncn2-c2cnc(Nc3ccc(C(=O)NC4CC4)cc3F)nc2N1C1CCCC1 [Compound I-14, (R)-4-(5-cyclopentyl-4-ethyl-4,5-dihydro-[1,2,4]triazolo[4,3-f]pteridin-7-ylamino)-N-cyclopropyl-3-fluorobenzamide]	> 8.00
CC[C@@H]1c2nncn2-c2cnc(Nc3ccc(C(=O)NC4CC4)s3)nc2N1C1CCCC1 [Compound I-15, (R)-5-(5-cyclopentyl-4-ethyl-4,5-dihydro-[1,2,4]triazolo[4,3-f]pteridin-7-ylamino)-N-cyclopropylthiophene-2-carboxamide]	> 8.00
CC[C@@H]1c2nncn2-c2cnc(Nc3ccc(C(F)(F)F)cc3F)nc2N1C1CCCC1 [Compound I-20, (R)-5-cyclopentyl-4-ethyl-N-(2-fluoro-4-(trifluoromethyl)phenyl)-4,5-dihydro-[1,2,4]triazolo[4,3-f]pteridin-7-amine]	> 8.00
CC[C@@H]1c2nncn2-c2cnc(Nc3ccc(C(=O)NC4CCCC4)cc3OC)nc2N1C1CCCC1 [Compound I-10, (R)—N-cyclopentyl-4-(5-cyclopentyl-4-ethyl-4,5-dihydro-[1,2,4]triazolo[4,3-f]pteridin-7-ylamino)-3-methoxybenzamide]	> 8.00
CC[C@@H]1c2nncn2-c2cnc(Nc3ccc(N4CCCC4)cc3)nc2N1C1CCCC1 [Compound I-42, (R)-5-cyclopentyl-4-ethyl-N-(4-(pyrrolidin-1-yl)phenyl)-4,5-dihydro-[1,2,4]triazolo[4,3-f]pteridin-7-amine]	> 8.00
CC[C@@H]1c2nncn2-c2cnc(Nc3ccc(N4CCN(C)CC4)nc3)nc2N1C1CCCC1 [Compound I-41, (R)-5-cyclopentyl-4-ethyl-N-(6-(4-methylpiperazin-1-yl)pyridin-3-yl)-4,5-dihydro-[1,2,4]triazolo[4,3-f]pteridin-7-amine]	> 8.00
CC[C@@H]1c2nncn2-c2cnc(Nc3ccc(C(=O)NC)cc3C(F)F)nc2N1C1CCCC1 [Compound I-24, (R)-4-(5-cyclopentyl-4-ethyl-4,5-dihydro-[1,2,4]triazolo[4,3-f]pteridin-7-ylamino)-3-(difluoromethyl)-N-methylbenzamide]	> 8.00
CC[C@@H]1c2nncn2-c2cnc(Nc3ccc(C(=O)NC)cc3C(F)(F)F)nc2N1C1CCCC1 [Compound I-21, (R)-4-(5-cyclopentyl-4-ethyl-4,5-dihydro-[1,2,4]triazolo[4,3-f]pteridin-7-ylamino)-N-methyl-3-(trifluoromethyl)benzamide]	> 8.00
CC[C@@H]1c2nncn2-c2cnc(Nc3ccc(OC(F)F)cc3)nc2N1C1CCCC1 [Compound I-33, (R)-5-cyclopentyl-N-(4-(difluoromethoxy)phenyl)-4-ethyl-4,5-dihydro-[1,2,4]triazolo[4,3-f]pteridin-7-amine]	> 8.00
CC[C@@H]1c2nncn2-c2cnc(Nc3ccc(C(=O)NC)cc3OC)nc2N1C1CCC1 [Compound I-29, (R)-4-(5-cyclobutyl-4-ethyl-4,5-dihydro-[1,2,4]triazolo[4,3-f]pteridin-7-ylamino)-3-methoxy-N-methylbenzamide]	> 8.00
CC[C@@H]1c2nncn2-c2cnc(Nc3ccc(C(=O)NC4CCN(C)CC4)cc3OC)nc2N1C1CCCC1 [Compound I-2, 4-((R)-5-cyclopentyl-4-ethyl-4,5-dihydro-[1,2,4]triazolo[4,3-f]pteridin-7-ylamino)-3-methoxy-N-(1-methylpiperidin-4-yl)benzamide]	> 8.00
CC[C@@H]1c2nncn2-c2cnc(Nc3ccc(N4CCN(C)CC4)cc3)nc2N1C1CCCC1 [Compound I-32, (R)-5-cyclopentyl-4-ethyl-N-(4-(4-methylpiperazin-1-yl)phenyl)-4,5-dihydro-[1,2,4]triazolo[4,3-f]pteridin-7-amine]	> 8.00
CC[C@@H]1c2nncn2-c2cnc(Nc3ccc(C(=O)N4CC[C@H](F)C4)cc3OC)nc2N1C1CCCC1 [Compound I-12, (4-((R)-5-cyclopentyl-4-ethyl-4,5-dihydro-[1,2,4]triazolo[4,3-f]pteridin-7-ylamino)-3-methoxyphenyl)((S)-3-fluoropyrrolidin-1-yl)methanone]	> 8.00
CC[C@@H]1c2nncn2-c2cnc(Nc3cccnc3)nc2N1C1CCCC1 [Compound I-25, (R)-5-cyclopentyl-4-ethyl-N-(pyridin-3-yl)-4,5-dihydro-[1,2,4]triazolo[4,3-f]pteridin-7-amine]	> 8.00
CC[C@@H]1c2nncn2-c2cnc(Nc3ccc(C(=O)NC)cc3F)nc2N1C1CCCC1 [Compound I-16, (R)-4-(5-cyclopentyl-4-ethyl-4,5-dihydro-[1,2,4]triazolo[4,3-f]pteridin-7-ylamino)-3-fluoro-N-methylbenzamide]	> 8.00
CCNC(=O)c1ccc(Nc2ncc3c(n2)N(C2CCCC2)[C@H](CC)c2nncn2-3)c(F)c1 [Compound I-19, (R)-4-(5-cyclopentyl-4-ethyl-4,5-dihydro-[1,2,4]triazolo[4,3-f]pteridin-7-ylamino)-N-ethyl-3-fluorobenzamide]	> 8.00
CC[C@@H]1c2nncn2-c2cnc(Nc3ccccc3)nc2N1C1CCCC1 [Compound I-22, (R)-5-cyclopentyl-4-ethyl-N-phenyl-4,5-dihydro-[1,2,4]triazolo[4,3-f]pteridin-7-amine]	> 8.00
CC[C@@H]1c2nncn2-c2cnc(Nc3ccc(C(=O)NC4CC4)cc3OC)nc2N1C1CCCC1 [Compound I-8, (R)-4-(5-cyclopentyl-4-ethyl-4,5-dihydro-[1,2,4]triazolo[4,3-f]pteridin-7-ylamino)-N-cyclopropyl-3-methoxybenzamide]	> 8.00
CC[C@@H]1c2nncn2-c2cnc(Nc3ccc(C(=O)NC)cc3C)nc2N1C1CCCC1 [Compound I-6, 4-((R)-5-cyclopentyl-4-ethyl-4,5-dihydro-[1,2,4]triazolo[4,3]pteridin-7-ylamino)-N,3-dimethylbenzamide]	> 8.00
CC[C@@H]1c2nncn2-c2cnc(NCc3ccccc3)nc2N1C1CCCC1 [Compound I-31, (R)—N-benzyl-5-cyclopentyl-4-ethyl-4,5-dihydro-[1,2,4]triazolo[4,3-f]pteridin-7-amine]	7.00 to 8.00
CC[C@@H]1c2nncn2-c2cnc(Nc3ccc(C(=O)N[C@@H]4CCOC4)cc3OC)nc2N1C1CCCC1 [Compound I-9, 4-((R)-5-cyclopentyl-4-ethyl-4,5-dihydro-[1,2,4]triazolo[4,3-f]pteridin-7-ylamino)-3-methoxy-N—((R)-tetrahydrofuran-3-yl)benzamide]	> 8.00
CCNC(=O)c1ccc(Nc2ncc3c(n2)N(C2CCCC2)[C@H](CC)c2nncn2-3)c(OC)c1 [Compound I-18, (R)-4-(5-cyclopentyl-4-ethyl-4,5-dihydro-[1,2,4]triazolo[4,3-f]pteridin-7-ylamino)-N-ethyl-3-methoxybenzamide]	> 8.00
CC[C@@H]1c2nccn2-c2cnc(Nc3ccc(C(=O)NC)cc3OC)nc2N1C1CCCC1 [Compound I-7, 4-((R)-5-cyclopentyl-6-ethyl-5,6-dihydroimidazo[1,2)pteridin-3-ylamino)-3-methoxy-N-methylbenzamide]	> 8.00
